Laboratory results reported in PubChem BioAssay AID330 (DTP/NCI, 2004).
Where “and” joins values, the source holds several entries; their conditions need not be identical. Equal entries are not always repeated. Inconclusive results and toxic doses are left out.

Test system: P388 leukemia ip, CD2F1 mice, survival T/C
Assay: NCI In Vivo Anticancer Drug Screen. Data for tumor model P388 Leukemia (intraperitoneal) in CD2F1 (CDF1) mice
Settings: endpoint: median survival time, higher = longer survival
In short: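 Mice carrying the transplanted tumor received test compound or vehicle. Survival was recorded in each group, and the value is the treated-group measurement divided by that of the vehicle-treated control group.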

[1] = dose: 50.0 mg/kg/injection, schedule: Q01DX009 (ip), vehicle: saline with Tween-80
[2] = dose: 100.0 mg/kg/injection, schedule: Q01DX009 (ip), vehicle: saline with Tween-80
[3] = dose: 200.0 mg/kg/injection, schedule: Q01DX009 (ip), vehicle: saline with Tween-80
[4] = dose: 25.0 mg/kg/injection, schedule: Q04DX002 (ip), vehicle: saline with Tween-80
[5] = dose: 50.0 mg/kg/injection, schedule: Q04DX002 (ip), vehicle: saline with Tween-80
[6] = dose: 100.0 mg/kg/injection, schedule: Q04DX002 (ip), vehicle: saline with Tween-80
[7] = dose: 50.0 mg/kg/injection, schedule: Q01DX009 (ip), vehicle: Klucel (hydroxypropylcellulose) (HPC)
[8] = dose: 100.0 mg/kg/injection, schedule: Q01DX009 (ip), vehicle: Klucel (hydroxypropylcellulose) (HPC)
[9] = dose: 200.0 mg/kg/injection, schedule: Q01DX009 (ip), vehicle: Klucel (hydroxypropylcellulose) (HPC)
[10] = dose: 25.0 mg/kg/injection, schedule: Q01DX009 (ip), vehicle: Klucel (hydroxypropylcellulose) (HPC)
[11] = dose: 7.5 mg/kg/injection, schedule: Q01DX005 (ip), vehicle: saline with Tween-80
[12] = dose: 15.0 mg/kg/injection, schedule: Q01DX005 (ip), vehicle: saline with Tween-80
[13] = dose: 60.0 mg/kg/injection, schedule: Q01DX005 (ip), vehicle: saline with Tween-80
[14] = dose: 120.0 mg/kg/injection, schedule: Q01DX005 (ip), vehicle: saline with Tween-80
[15] = dose: 240.0 mg/kg/injection, schedule: Q01DX005 (ip), vehicle: saline with Tween-80
[16] = dose: 50.0 mg/kg/injection, schedule: Q01DX005 (ip), vehicle: Klucel (hydroxypropylcellulose) (HPC)
[17] = dose: 100.0 mg/kg/injection, schedule: Q01DX005 (ip), vehicle: Klucel (hydroxypropylcellulose) (HPC)
[18] = dose: 50.0 mg/kg/injection, schedule: Q01DX005 (ip), vehicle: saline with Tween-80
[19] = dose: 100.0 mg/kg/injection, schedule: Q01DX005 (ip), vehicle: saline with Tween-80
[20] = dose: 200.0 mg/kg/injection, schedule: Q01DX005 (ip), vehicle: saline with Tween-80

## Oc1c(Br)cc(Br)cc1C1CCCCC1
dose: 25.0 mg/kg/injection, schedule: Q01DX009 (ip), vehicle: saline with Tween-80
  T/C: 110 % of control
[1]
  T/C: 119 % of control
[2]
  T/C: 107 % of control
[3]
  T/C: 113 % of control

## c1ccc2c(NCC3CCN(c4c5ccccc5nc5ccccc45)CC3)c3ccccc3nc2c1
[4]
  T/C: 118 % of control
[5]
  T/C: 117 % of control
[6]
  T/C: 111 % of control

## c1cc(NNc2cccc(-c3nn[nH]n3)c2)cc(-c2nn[nH]n2)c1
[7]
  T/C: 95 % of control
[8]
  T/C: 117 % of control
[9]
  T/C: 113 % of control

## C[N+](C)(C)C.O=C([CH-]C(=O)C(F)(F)F)c1ccccc1.O=C([CH-]C(=O)C(F)(F)F)c1ccccc1.O=C([CH-]C(=O)C(F)(F)F)c1ccccc1.O=C([CH-]C(=O)C(F)(F)F)c1ccccc1.[Eu+3]
[10]
  T/C: 99 % of control
[7]
  T/C: 106 % of control and 113 % of control
[1]
  T/C: 103 % of control
[8]
  T/C: 112 % of control and 117 % of control
[2]
  T/C: 99 % of control
[9]
  T/C: 113 % of control

## CC(=O)OC1CC(C(=O)c2ccccc2)N2N=CN(c3ccccc3)C12 (stereo not given)
dose: 60.0 mg/kg/injection, schedule: Q01DX005 (ip), vehicle: Klucel (hydroxypropylcellulose) (HPC)
  T/C: 103 % of control
dose: 120.0 mg/kg/injection, schedule: Q01DX005 (ip), vehicle: Klucel (hydroxypropylcellulose) (HPC)
  T/C: 102 % of control
dose: 240.0 mg/kg/injection, schedule: Q01DX005 (ip), vehicle: Klucel (hydroxypropylcellulose) (HPC)
  T/C: 104 % of control

## O=C1N=CC2(N=N2)C(=O)N1
dose: 3.75 mg/kg/injection, schedule: Q01DX005 (ip), vehicle: saline with Tween-80
  T/C: 161 % of control
[11]
  T/C: 155 % of control and 168 % of control
[12]
  T/C: 178 % of control and 190 % of control

## O=C(O)c1cc2c([nH]1)-c1cccnc1C(=O)C2=O
[13]
  T/C: 101 % of control
[14]
  T/C: 105 % of control
[15]
  T/C: 101 % of control

## NC(=O)N(c1ccccc1)c1ccccn1
[13]
  T/C: 97 % of control
[14]
  T/C: 97 % of control
[15]
  T/C: 94 % of control

## CC1=C(O)C(=O)C=C2C1=CC=C1[C@@]2(C)CCC2(C)[C@@H]3C[C@@H](C)C(=O)C[C@]3(C)CC[C@]12C (stereo not given in full)
dose: 12.5 mg/kg/injection, schedule: Q01DX005 (ip), vehicle: Klucel (hydroxypropylcellulose) (HPC)
  T/C: 109 % of control
dose: 25.0 mg/kg/injection, schedule: Q01DX005 (ip), vehicle: Klucel (hydroxypropylcellulose) (HPC)
  T/C: 101 % of control
[16]
  T/C: 90 % of control
[17]
  T/C: 97 % of control
dose: 260.0 mg/kg/injection, schedule: Q01DX005 (ip), vehicle: Klucel (hydroxypropylcellulose) (HPC)
  T/C: 97 % of control

## O=C1COC(C(O)(c2ccccc2)c2ccccc2)C(=O)N1 (stereo not given)
[13]
  T/C: 107 % of control
[14]
  T/C: 102 % of control
[15]
  T/C: 98 % of control

## CN=C(N)N/N=C/c1c2ccccc2cc2ccccc12
[4]
  T/C: 115 % of control
[5]
  T/C: 111 % of control
[6]
  T/C: 114 % of control

## Cc1cc2c3ccc(C)[n+](C)c3ccc2n1C
dose: 1.25 mg/kg/injection, schedule: Q01DX010 (ip), vehicle: saline
  T/C: 100 % of control
dose: 2.5 mg/kg/injection, schedule: Q01DX010 (ip), vehicle: saline
  T/C: 105 % of control

## CCC(C)B1N(c2ccccc2)N=NN1C(C)(C)C (stereo not given)
[13]
  T/C: 97 % of control
[14]
  T/C: 97 % of control
[15]
  T/C: 105 % of control

## O=c1ccc2[n+]([O-])c3ccc(O)cc3oc-2c1
[18]
  T/C: 95 % of control
[19]
  T/C: 100 % of control

## Nc1nc(Nc2ccccc2)nc(-c2ccccc2)n1
[18]
  T/C: 100 % of control
[19]
  T/C: 86 % of control

## COc1ccc(C2c3c(ccc4ccccc34)Oc3ccc4ccccc4c32)cc1
[13]
  T/C: 87 % of control
[14]
  T/C: 86 % of control
[15]
  T/C: 90 % of control

## N#CCCSC(=S)N1CCCC1=O
[18]
  T/C: 103 % of control
[19]
  T/C: 104 % of control
[20]
  T/C: 114 % of control

## CN=c1nc2n3c(cccc3n1)NC(C)=N2
[13]
  T/C: 100 % of control
[14]
  T/C: 92 % of control
[15]
  T/C: 99 % of control

## CCSc1nc2ccc(N=Cc3ccc(NS(=O)(=O)c4ccccc4)cc3O)cc2s1
[7]
  T/C: 116 % of control
[8]
  T/C: 103 % of control

## CN1C2CCC1CC(=NOS(=O)(=O)CC13CCC(CC1=O)C3)C2 (stereo not given)
dose: 50.0 mg/kg/injection, schedule: Q01DX005 (ip), vehicle: saline
  T/C: 100 % of control
dose: 100.0 mg/kg/injection, schedule: Q01DX005 (ip), vehicle: saline
  T/C: 103 % of control
dose: 200.0 mg/kg/injection, schedule: Q01DX005 (ip), vehicle: saline
  T/C: 115 % of control

## O=[N+]([O-])c1ccc(/C=N/NC(=S)NC23CC4CC(CC(C4)C2)C3)o1
[16]
  T/C: 92 % of control
[17]
  T/C: 103 % of control
dose: 200.0 mg/kg/injection, schedule: Q01DX005 (ip), vehicle: Klucel (hydroxypropylcellulose) (HPC)
  T/C: 94 % of control

## O=C(O)c1cccc(C(=O)O)c1S(=O)Cc1ccccc1 (stereo not given)
[18]
  T/C: 102 % of control
[19]
  T/C: 93 % of control
[20]
  T/C: 105 % of control

## CC1NC(=O)C(C)NC1=O (stereo not given)
[7]
  T/C: 93 % of control
[8]
  T/C: 96 % of control
[9]
  T/C: 94 % of control

## CSC(=S)SC(SC)S(C)(=O)=O (stereo not given)
dose: 3.12 mg/kg/injection, schedule: Q01DX009 (ip), vehicle: Klucel (hydroxypropylcellulose) (HPC)
  T/C: 103 % of control
dose: 6.25 mg/kg/injection, schedule: Q01DX009 (ip), vehicle: Klucel (hydroxypropylcellulose) (HPC)
  T/C: 112 % of control
dose: 12.5 mg/kg/injection, schedule: Q01DX009 (ip), vehicle: Klucel (hydroxypropylcellulose) (HPC)
  T/C: 110 % of control and 117 % of control
[10]
  T/C: 93 % of control

## O=c1[nH]c2ccc(Cl)cc2[nH]c1=O
[18]
  T/C: 99 % of control
[19]
  T/C: 100 % of control
[20]
  T/C: 94 % of control

## ON=C1CCC(=NO)CC1
dose: 25.0 mg/kg/injection, schedule: Q04DX003 (ip), vehicle: saline
  T/C: 101 % of control
dose: 50.0 mg/kg/injection, schedule: Q04DX003 (ip), vehicle: saline
  T/C: 100 % of control
dose: 100.0 mg/kg/injection, schedule: Q04DX003 (ip), vehicle: saline
  T/C: 95 % of control
dose: 200.0 mg/kg/injection, schedule: Q04DX003 (ip), vehicle: saline
  T/C: 107 % of control
dose: 400.0 mg/kg/injection, schedule: Q04DX003 (ip), vehicle: saline
  T/C: 101 % of control

## CC(=O)c1ccc(Cl)c(-n2cccc2)c1
[16]
  T/C: 95 % of control
[17]
  T/C: 101 % of control

## CC(=O)OCC1OC(n2nnc(CCl)c2CCl)C(OC(C)=O)C(OC(C)=O)C1OC(C)=O (stereo not given)
[1]
  T/C: 110 % of control
[2]
  T/C: 98 % of control
[3]
  T/C: 117 % of control

## COc1ccc(NC(=O)C#N)cc1
[11]
  T/C: 105 % of control
[12]
  T/C: 113 % of control
